ChEMBL document CHEMBL2029347, “Identification of blapsins A and B as potent small-molecule 14-3-3 inhibitors from the insect Blaps japanensis” (Bioorg Med Chem Lett, 2012)

How the values were obtained:
14-3-3 protein gamma [1] = biological target: T1, 14-3-3 protein gamma (Homo sapiens, UniProt P61981); assay: Inhibition of recombinant GST-tagged 14-3-3gamma interaction with PRAS40 in Cos7 cell lysate by ELISA; type: cell-free
T1 sequence (P61981 whole entry): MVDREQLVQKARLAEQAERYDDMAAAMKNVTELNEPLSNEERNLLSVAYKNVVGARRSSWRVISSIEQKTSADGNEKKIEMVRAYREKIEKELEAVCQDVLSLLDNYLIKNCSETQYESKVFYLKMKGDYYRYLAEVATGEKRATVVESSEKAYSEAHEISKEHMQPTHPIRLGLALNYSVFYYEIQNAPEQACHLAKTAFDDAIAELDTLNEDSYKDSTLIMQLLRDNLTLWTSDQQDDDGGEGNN

14-3-3 protein gamma [2] = biological target: T1, 14-3-3 protein gamma; assay: Inhibition of recombinant GST-tagged 14-3-3gamma interaction with TMR-pS259-Raf peptide after 30 mins by fluorescence polarization assay

IC50 (14-3-3 protein gamma [1]) [µM] | IC50 (14-3-3 protein gamma [2]) [µM] | SMILES
9.2 | 2 | O=C(Cc1ccc(O)c(O)c1)OCCc1ccc(O)c(O)c1 [BLAPSIN A]
10 | 2.5 | Oc1ccc(C2OCCc3cc(O)c(O)cc32)cc1O (racemic) [BLAPSIN B]
